According to the supplement of paper PMC10307832:

Experiments:
Experiment in all cases: relative viability (nuclei count vs DMSO), 5 days (fraction); higher = more cells survive
Wnt-C59 + Palbociclib = compound: CC1=NC=CC(=C1)C2=CC=C(C=C2)CC(=O)NC3=CC=C(C=C3)C4=CN=CC=C4 [Wnt-C59] + CC(=O)c1c(C)c2cnc(Nc3ccc(N4CCNCC4)cn3)nc2n(C2CCCC2)c1=O [Palbociclib] (partner 0.5 µM)
Method in brief: (§1)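 For relative viability, nuclei counts in treated wells were divided by those in vehicle wells. Lung cancer cell lines had been pin-tool dosed in 1536-well plates the day after seeding and cultured for 5 days, then fixed and stained in one step (final 0.05% Triton X-100, 1% formaldehyde, 1 ug/ml Hoechst) and imaged at 4×. Doses were one drug alone or a fixed anchor-drug dose plus five library-drug doses (not always all listed) in √10 steps, and values are duplicate-plate medians.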

Wnt-C59 + Luminespib = compound: CC1=NC=CC(=C1)C2=CC=C(C=C2)CC(=O)NC3=CC=C(C=C3)C4=CN=CC=C4 [Wnt-C59] + CCNC(=O)c1noc(-c2cc(C(C)C)c(O)cc2O)c1-c1ccc(CN2CCOCC2)cc1 [Luminespib] (partner 0.01 µM)
Method in brief: as §1

Wnt-C59 + AZD7762 = compound: CC1=NC=CC(=C1)C2=CC=C(C=C2)CC(=O)NC3=CC=C(C=C3)C4=CN=CC=C4 [Wnt-C59] + NC(=O)Nc1cc(-c2cccc(F)c2)sc1C(=O)N[C@H]1CCCNC1 [AZD7762] (partner 0.2 µM)
Method in brief: as §1

Lapatinib + Pemetrexed = compound: CS(=O)(=O)CCNCc1ccc(-c2ccc3ncnc(Nc4ccc(OCc5cccc(F)c5)c(Cl)c4)c3c2)o1 [Lapatinib] + Nc1nc2[nH]cc(CCc3ccc(C(=O)N[C@@H](CCC(=O)O)C(=O)O)cc3)c2c(=O)[nH]1 [Pemetrexed] (partner 0.2 µM)
Method in brief: as §1

Cell Line	relative viability (Wnt-C59 + Palbociclib; first compound 0.001 µM)	relative viability (Wnt-C59 + Palbociclib; first compound 0.01 µM)	relative viability (Wnt-C59 + Palbociclib; first compound 0.03162 µM)	relative viability (Wnt-C59 + Palbociclib; first compound 0.1 µM)	relative viability (Wnt-C59 + Luminespib; first compound 0.001 µM)	relative viability (Wnt-C59 + Luminespib; first compound 0.01 µM)	relative viability (Wnt-C59 + Luminespib; first compound 0.03162 µM)	relative viability (Wnt-C59 + Luminespib; first compound 0.1 µM)	relative viability (Wnt-C59 + AZD7762; first compound 0.001 µM)	relative viability (Wnt-C59 + AZD7762; first compound 0.01 µM)	relative viability (Wnt-C59 + AZD7762; first compound 0.03162 µM)	relative viability (Wnt-C59 + AZD7762; first compound 0.1 µM)	relative viability (Lapatinib + Pemetrexed; first compound 0.02 µM)	relative viability (Lapatinib + Pemetrexed; first compound 0.2 µM)	relative viability (Lapatinib + Pemetrexed; first compound 0.6325 µM)	relative viability (Lapatinib + Pemetrexed; first compound 2 µM)	relative viability (Lapatinib + Pemetrexed; first compound 0.06325 µM)
NCI-H441	0.265	0.206	0.247	0.237	0.428	0.247	0.276	0.407	1.19	1.35	1.48	0.997	0.305	0.248	0.231	0.248	–
NCI-H460	0.185	0.145	0.207	0.147	0.0357	0.0331	0.0466	0.0312	0.554	0.605	0.568	0.673	0.0637	0.0581	0.0692	0.0618	0.0621
NCI-H522	0.912	1.04	1.15	0.892	1.63	1.2	0.979	1.13	0.857	0.863	0.877	0.637	–	0.875	0.994	0.781	0.794
NCI-H647	0.346	0.326	0.388	0.316	0.145	0.175	0.149	0.166	0.554	0.389	0.502	0.472	0.176	0.162	0.168	0.158	0.149
NCI-H650	0.276	0.344	0.302	0.323	0.752	0.751	0.865	0.718	0.883	1.03	0.969	1.24	–	0.913	1.08	0.963	0.881
NCI-H838	0.238	0.22	0.238	0.221	0.279	0.347	0.311	0.303	0.958	0.942	0.966	0.883	0.275	0.258	0.311	0.251	0.244
NCI-H1355	0.408	0.375	0.408	0.375	0.774	0.693	0.649	0.626	0.81	0.753	0.753	0.766	0.833	0.948	1.06	0.889	0.93
NCI-H1395	0.598	0.652	0.566	0.573	0.702	0.589	0.762	0.773	0.39	0.383	0.426	0.389	–	0.87	0.887	0.793	0.938
NCI-H1437	0.31	0.309	0.336	0.335	1.21	1.07	1.17	1.05	1.14	1.16	1.18	1.08	0.303	0.279	0.289	0.329	0.302
NCI-H1651	0.526	0.499	0.452	0.479	0.864	0.862	0.97	0.835	0.502	0.394	0.551	0.459	0.48	0.553	0.6	0.657	0.553
NCI-H1666	0.658	0.654	0.616	0.647	1.05	1.04	1.04	1.03	0.95	0.819	0.82	0.857	0.858	0.851	0.841	0.67	0.789
NCI-H1734	0.382	0.334	0.36	0.364	0.233	0.241	0.196	0.138	0.589	0.517	0.641	0.543	–	0.411	0.425	0.383	0.422
NCI-H1755	0.454	0.447	0.438	0.416	0.549	0.534	0.407	0.644	0.498	0.433	0.436	0.473	0.423	0.49	0.451	0.439	0.405
NCI-H1792	0.673	0.655	0.672	0.656	0.515	0.388	–	0.656	0.659	0.676	0.701	0.854	–	0.936	0.75	0.656	–
NCI-H1793	0.296	0.259	0.355	0.321	0.176	–	0.204	0.201	0.467	0.408	0.536	0.532	–	0.889	0.658	0.535	0.602
NCI-H1915	0.516	0.521	0.473	0.572	0.867	0.74	0.986	0.785	0.761	0.69	0.708	0.69	–	0.456	0.465	0.473	0.457

Cell Line	relative viability (Wnt-C59 + Palbociclib; first compound 0.001 µM)	relative viability (Wnt-C59 + Palbociclib; first compound 0.01 µM)	relative viability (Wnt-C59 + Palbociclib; first compound 0.03162 µM)	relative viability (Wnt-C59 + Palbociclib; first compound 0.1 µM)	relative viability (Wnt-C59 + Luminespib; first compound 0.001 µM)	relative viability (Wnt-C59 + Luminespib; first compound 0.01 µM)	relative viability (Wnt-C59 + Luminespib; first compound 0.03162 µM)	relative viability (Wnt-C59 + Luminespib; first compound 0.1 µM)	relative viability (Wnt-C59 + AZD7762; first compound 0.001 µM)	relative viability (Wnt-C59 + AZD7762; first compound 0.01 µM)	relative viability (Wnt-C59 + AZD7762; first compound 0.03162 µM)	relative viability (Wnt-C59 + AZD7762; first compound 0.1 µM)	relative viability (Lapatinib + Pemetrexed; first compound 0.02 µM)	relative viability (Lapatinib + Pemetrexed; first compound 0.2 µM)	relative viability (Lapatinib + Pemetrexed; first compound 0.6325 µM)	relative viability (Lapatinib + Pemetrexed; first compound 2 µM)	relative viability (Lapatinib + Pemetrexed; first compound 0.06325 µM)
NCI-H1944	0.343	0.328	0.334	0.339	0.802	0.758	0.769	0.652	0.474	0.482	0.452	0.534	0.619	0.551	0.523	0.41	0.493
NCI-H1975	0.605	0.601	0.607	0.554	0.347	0.28	0.217	0.143	0.72	0.653	0.724	0.773	0.316	0.287	0.283	0.284	0.298
NCI-H1993	0.694	0.648	0.663	0.602	0.862	–	0.948	0.365	0.965	0.665	1.05	0.769	0.595	0.578	0.607	0.543	–
NCI-H2085	0.459	0.425	0.477	0.471	0.457	0.502	0.419	0.494	0.901	0.865	1.06	0.957	0.743	0.911	0.847	0.605	0.806
NCI-H2087	0.228	0.212	0.245	0.23	0.146	0.183	0.187	0.216	1.43	1.37	1.28	1.2	0.646	0.599	0.616	0.513	0.636
NCI-H2126	0.378	0.36	0.35	0.36	0.83	1	0.991	0.892	1.01	1.02	1.02	1.05	0.379	0.655	0.672	0.607	0.484
NCI-H2170	0.393	0.397	0.416	0.367	0.583	0.722	0.758	0.655	0.762	0.688	0.992	0.836	0.272	0.271	0.274	0.198	0.249
NCI-H2342	0.491	0.488	0.55	0.504	0.692	0.658	0.806	0.809	0.525	0.498	0.495	0.457	0.576	0.723	0.776	0.714	0.712
NCI-H2347	0.437	0.445	0.484	0.417	0.565	0.339	0.498	0.877	0.726	0.738	0.779	0.698	–	0.417	0.436	0.504	0.421
NCI-H2405	0.516	0.506	0.498	0.473	0.762	0.809	0.7	0.842	0.759	0.75	0.759	0.8	–	–	1.04	1.01	0.977
NCI-H3122	0.183	0.201	0.22	0.186	0.0968	0.0872	0.0839	0.0884	1.03	0.949	1.05	0.973	0.212	0.206	0.197	0.193	0.199
PC-3 [JPC-3]	0.498	0.532	0.505	0.512	0.782	0.817	0.913	0.696	0.883	1.05	0.758	0.927	–	–	0.995	0.588	1.13
PC-14	0.688	0.496	0.552	0.506	0.178	0.166	0.144	0.16	0.414	0.367	0.351	0.457	0.151	0.167	0.133	0.129	0.117
RERF-LC-KJ	1.22	1.07	1.2	1.08	1.2	1.38	1.23	1.18	0.965	0.934	1.19	0.912	0.39	0.466	0.444	0.459	0.472
SW 900	0.48	0.461	0.608	0.54	0.159	0.179	0.172	0.197	0.602	0.615	0.555	0.562	–	0.494	0.471	0.45	0.432
